The record followed here is patent US20250002507A1, “7,8-DIHYDRO-5H-1,6-NAPHTHYRIDINE DERIVATIVES AS POSITIVE ALLOSTERIC MODULATORS OF THE MUSCARINIC ACETYLCHOLINE RECEPTOR M4 FOR TREATING NEUROLOGICAL AND PSYCHIATRIC DISORDERS” (Vanderbilt University, priority 2021, published 2025).

Read-outs that look alike come from different tables or passages of the source.

The target in this experiment is T1, Human M4 (Homo sapiens, UniProt P08173).
T1 construct: expressed in transfected cells
T1 sequence (P08173 1-479): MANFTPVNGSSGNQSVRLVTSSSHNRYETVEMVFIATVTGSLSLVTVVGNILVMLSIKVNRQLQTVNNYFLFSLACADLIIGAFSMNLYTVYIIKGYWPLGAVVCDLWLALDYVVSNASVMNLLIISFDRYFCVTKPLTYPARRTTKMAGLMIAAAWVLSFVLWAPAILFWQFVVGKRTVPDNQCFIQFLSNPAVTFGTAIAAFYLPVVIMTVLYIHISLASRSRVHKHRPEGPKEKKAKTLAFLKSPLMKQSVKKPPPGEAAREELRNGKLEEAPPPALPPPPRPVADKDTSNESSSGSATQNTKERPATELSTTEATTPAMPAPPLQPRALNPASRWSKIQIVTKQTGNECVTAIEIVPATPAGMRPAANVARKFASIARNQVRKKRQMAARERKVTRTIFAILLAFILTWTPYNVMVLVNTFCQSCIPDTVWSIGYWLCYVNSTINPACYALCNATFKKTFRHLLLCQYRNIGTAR
The experiment can be described thus: mAChR M4 cell-based functional assay (calcium flux, potentiation of EC20 acetylcholine response), hM4-Gqi5 CHO-K1 cells. Conditions: for Emax at 30 µM: % ACh maximum at 30 μM; for EC50: calcium flux, read-out: Human M4 EC50. Put shortly: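 CHO-K1 cells stably expressing human M4 with chimeric Gqi5, loaded with Fluo-4 AM 50 min at 37 °C; calcium flux read by FDSS. 11-point 1:3 compound curves added, then EC20 acetylcholine at 144 s; potentiation of the EC20 response fitted by four-parameter logistic to give EC50 and Emax.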
(Calcium assays in cells follow changes in intracellular calcium, usually with a dye or a luminescent sensor.)

Setting [1] is: CHO-K1, Table 3, Human M4, read-out: Emax (% ACh maximum at 30 μM).
The mark [2] stands for this setting: Table 3, potentiation of EC20 acetylcholine response, CHO-K1 cells.
Setting [3] is: hM4-Gqi5 CHO-K1 cells, PAM of EC20 acetylcholine.
[4] abbreviates: CHO-K1, Table 4, Human M4, read-out: Emax (% ACh maximum at 30 μM).
The mark [5] stands for this setting: Table 4, potentiation of EC20 acetylcholine response, CHO-K1 cells.
Where [6] appears, read: CHO-K1, human M4, read-out: Emax.

For `Cc1c(N2CCc3ncc(-c4ccc(N5CCN(C)CC5)cc4)cc3C2)nn2cnnc2c1C` [Compound 224, 6-(7,8-dimethyl-[1,2,4]triazolo[4,3-b]pyridazin-6-yl)-3-(4-(4-methylpiperazin-1-yl)phenyl)-5,6,7,8-tetrahydro-1,6-naphthyridine], the Emax – broadly, the maximal effect, on the per cent scale that the assay sets – at 30 µM under setting [1] turned out to be 100%. Moreover, under setting [2], the EC50 (as a rule, the concentration at which the effect is half-maximal) was determined as 581 nM. Turning to `Cc1c(N2CCc3ncc(C#N)cc3C2)nn2cnnc2c1C` [Compound 3, 6-(7,8-Dimethyl-[1,2,4]triazolo[4,3-b]pyridazin-6-yl)-7,8-dihydro-5H-1,6-naphthyridine-3-carbonitrile], the Emax (CHO-K1) came out at 69%. Further, the EC50 under setting [3] was 4510 nM. For the molecule `Cc1cc(Nc2cnc3c(c2)CN(c2nn4cnnc4c(C)c2C)CC3)c(F)cn1` [Compound 363, 6-(7,8-dimethyl-[1,2,4]triazolo[4,3-b]pyridazin-6-yl)-N-(5-fluoro-2-methylpyridin-4-yl)-5,6,7,8-tetrahydro-1,6-naphthyridin-3-amine], under setting [4], the Emax at 30 µM is 93%. Moreover, the EC50 under setting [5] amounted to 26 nM. With `Cc1c(N2CCc3ncc(C(=O)NC4CC4)cc3C2)nn2cnnc2c1C` [Compound 57, N-cyclopropyl-6-(7,8-dimethyl-[1,2,4]triazolo[4,3-b]pyridazin-6-yl)-7,8-dihydro-5H-1,6-naphthyridine-3-carboxamide], the Emax at 30 µM under setting [6] is 60%. The EC50 under setting [3] amounted to 7750 nM.

As to `Cc1c(N2CCc3ncc(C(=O)N4CCOCC4)cc3C2)nn2cnnc2c1C` [Compound 58, [6-(7,8-dimethyl-[1,2,4]triazolo[4,3-b]pyridazin-6-yl)-7,8-dihydro-5H-1,6-naphthyridin-3-yl]-morpholino-methanone], the Emax at 30 µM under setting [6] worked out at 51%. On to `COc1cnc(Cl)c(-c2cnc3c(c2)CN(c2nn4c(C(F)(F)F)nnc4c(C)c2C)CC3)c1` [Compound 239, 3-(2-chloro-5-methoxypyridin-3-yl)-6-(7,8-dimethyl-3-(trifluoromethyl)-[1,2,4]triazolo[4,3-b]pyridazin-6-yl)-5,6,7,8-tetrahydro-1,6-naphthyridine], for which the Emax at 30 µM under setting [1] was 57%. In addition, the EC50 under setting [2] amounted to 613 nM. Regarding `Cc1c(N2Cc3cc(C(F)(F)F)cnc3CC2C)nn2cnnc2c1C` (stereo not shown) [Compound 307, 6-(7,8-Dimethyl-[1,2,4]triazolo[4,3-b]pyridazin-6-yl)-7-methyl-3-(trifluoromethyl)-5,6,7,8-tetrahydro-1,6-naphthyridine], the Emax at 30 µM under setting [4] stood at 96%. The EC50 under setting [5] stood at 299 nM.

Take `Cc1cc2nncn2nc1N1CCc2ncc(N3CCCn4nccc43)cc2C1` [Compound 206, 3-(6,7-dihydropyrazolo[1,5-a]pyrimidin-4(5H)-yl)-6-(7-methyl-[1,2,4]triazolo[4,3-b]pyridazin-6-yl)-5,6,7,8-tetrahydro-1,6-naphthyridine]: the maximal response (Emax) at 30 µM under setting [1] came to 96%. The EC50 under setting [2] turned out to be 53 nM.

Take `Cc1cc2nncn2nc1N1CCc2ncc(-c3ccn(C)n3)cc2C1` [Compound 114, 3-(1-methylpyrazol-3-yl)-6-(7-methyl-[1,2,4]triazolo[4,3-b]pyridazin-6-yl)-7,8-dihydro-5H-1,6-naphthyridine]: the Emax at 30 µM under setting [6] was found to be 88%. Moreover, the EC50 under setting [3] is 707 nM. Take `Cc1c(N2CCc3ncc(C(C)(O)C4CC4)cc3C2)nn2cnnc2c1C` (stereo not shown) [Compound 166, 1-cyclopropyl-1-(6-(7,8-dimethyl-[1,2,4]triazolo[4,3-b]pyridazin-6-yl)-5,6,7,8-tetrahydro-1,6-naphthyridin-3-yl)ethan-1-ol]: under setting [1], the Emax at 30 µM stood at 95%. Further, the EC50 under setting [2] came to 1850 nM. In the case of `Cc1cc2nccn2nc1N1CCc2ncc(-c3cncs3)cc2C1` [Compound 107, 5-[6-(7-methylimidazo[1,2-b]pyridazin-6-yl)-7,8-dihydro-5H-1,6-naphthyridin-3-yl]thiazole], the Emax at 30 µM under setting [6] was 80%. Besides, the EC50 under setting [3] is 113 nM. For `Cc1cc2c(nc1C)CCN(c1nn3cnnc3c(C)c1C)C2` [Compound 167, 6-(7,8-dimethyl-[1,2,4]triazolo[4,3-b]pyridazin-6-yl)-2,3-dimethyl-5,6,7,8-tetrahydro-1,6-naphthyridine], the Emax (CHO-K1, read-out: Emax (% ACh maximum at 30 μM)) was found to be 106%. Further, under setting [2], the EC50 worked out at 188 nM.

As to `Cc1c(N2CCc3ncc(-c4cnn(C5CCC5)c4)cc3C2)nn2c(C(F)(F)F)nnc2c1C` [Compound 235, 3-(1-cyclobutyl-1H-pyrazol-4-yl)-6-(7,8-dimethyl-3-(trifluoromethyl)-[1,2,4]triazolo[4,3-b]pyridazin-6-yl)-5,6,7,8-tetrahydro-1,6-naphthyridine], under setting [1], the Emax at 30 µM was determined as 76%. The EC50 under setting [2] was 788 nM. For `Cc1c(N2CCc3ncc(-c4ccc(-n5cccn5)nc4)cc3C2)nn2cnnc2c1C` [Compound 191, 3-(6-(1H-pyrazol-1-yl)pyridin-3-yl)-6-(7,8-dimethyl-[1,2,4]triazolo[4,3-b]pyridazin-6-yl)-5,6,7,8-tetrahydro-1,6-naphthyridine], the Emax at 30 µM under setting [1] amounted to 66%. Besides, the EC50 under setting [2] came to 342 nM. `Cc1c(N2CCc3ncc(-c4ccc(C5CC5)nc4)cc3C2)nn2c(C(F)(F)F)nnc2c1C` [Compound 255, 3-(6-cyclopropylpyridin-3-yl)-6-(7,8-dimethyl-3-(trifluoromethyl)-[1,2,4]triazolo[4,3-b]pyridazin-6-yl)-5,6,7,8-tetrahydro-1,6-naphthyridine]: the maximal response (Emax) at 30 µM under setting [1] is 62%. The EC50 under setting [2] was determined as 602 nM. Consider `Cc1c(N2CCc3ncc(C(=O)NC(C)c4nccs4)cc3C2)nn2cnnc2c1C` (stereo not shown) [Compound 124, 6-(7,8-dimethyl-[1,2,4]triazolo[4,3-b]pyridazin-6-yl)-N-(1-thiazol-2-ylethyl)-7,8-dihydro-5H-1,6-naphthyridine-3-carboxamide], for which the Emax at 30 µM under setting [6] is 63%. Besides, the EC50 under setting [3] was found to be 3690 nM.

In the case of `Cc1cnc2c(c1)CN(c1nn3cc(C(=O)N4CCCC4)nc3cc1C)CC2` [Compound 171, [7-Methyl-6-(3-methyl-7,8-dihydro-5H-1,6-naphthyridin-6-yl)imidazo[1,2-b]pyridazin-2-yl]-pyrrolidin-1-yl-methanone], the Emax at 30 µM under setting [1] was 107%. Under setting [2], the EC50 came to 1040 nM. With `Cc1cc2nncn2nc1N1CCc2ncc(-c3cncs3)cc2C1` [Compound 103, 5-[6-(7-methyl-[1,2,4]triazolo[4,3-b]pyridazin-6-yl)-7,8-dihydro-5H-1,6-naphthyridin-3-yl]thiazole], the Emax at 30 µM under setting [6] is 97%. For the same molecule, the EC50 under setting [3] came to 232 nM.

With `Cc1c(N2CCc3ncc(C(=O)N4CC(C)(C)C4)cc3C2)nn2cnnc2c1C` [Compound 123, (3,3-dimethylazetidin-1-yl)-[6-(7,8-dimethyl-[1,2,4]triazolo[4,3-b]pyridazin-6-yl)-7,8-dihydro-5H-1,6-naphthyridin-3-yl]methanone], under setting [6], the Emax at 30 µM was 77%. For the same molecule, under setting [3], the EC50 came to 4770 nM. With `Cc1c(N2CCc3ncc(OCC(C)C)cc3C2)nn2cnnc2c1C` [Compound 221, 6-(7,8-dimethyl-[1,2,4]triazolo[4,3-b]pyridazin-6-yl)-3-isobutoxy-5,6,7,8-tetrahydro-1,6-naphthyridine], the Emax at 30 µM under setting [1] worked out at 76%. Further, the EC50 under setting [2] was found to be 588 nM. Take `Cc1c(N2CCc3ncc(-c4cnn(CC(C)C)c4)cc3C2)nn2cnnc2c1C` [Compound 146, 6-(7,8-dimethyl-[1,2,4]triazolo[4,3-b]pyridazin-6-yl)-3-(1-isobutylpyrazol-4-yl)-7,8-dihydro-5H-1,6-naphthyridine]: the Emax at 30 µM under setting [6] came out at 107%. The EC50 under setting [3] is 227 nM. Turning to `FC(F)(F)c1cnc2c(c1)CN(c1nn3c(C(F)(F)F)nnc3c3ccccc13)CC2` [Compound 338, 3-(trifluoromethyl)-6-(3-(trifluoromethyl)-7,8-dihydro-1,6-naphthyridin-6(5H)-yl)-[1,2,4]triazolo[3,4-a]phthalazine], under setting [4], the Emax at 30 µM came to 84%. Further, under setting [5], the EC50 worked out at 5400 nM. With `Cc1c(N2CCc3ncc(Cc4ccccc4F)cc3C2)nn2cnnc2c1C` [Compound 308, 6-(7,8-dimethyl-[1,2,4]triazolo[4,3-b]pyridazin-6-yl)-3-(2-fluorobenzyl)-5,6,7,8-tetrahydro-1,6-naphthyridine], under setting [4], the Emax at 30 µM was 91%. Moreover, the EC50 under setting [5] was 110 nM. Consider `Cc1ccccc1C(=O)Nc1cnc2c(c1)CN(c1nn3cnnc3c(C)c1C)CC2` [Compound 156, N-(6-(7,8-dimethyl-[1,2,4]triazolo[4,3-b]pyridazin-6-yl)-5,6,7,8-tetrahydro-1,6-naphthyridin-3-yl)-2-methylbenzamide], for which the Emax at 30 µM under setting [1] amounted to 70%. Moreover, the EC50 under setting [2] came out at 4210 nM. In the case of `Cc1c(N2CCc3ncc(Nc4cccc(F)c4F)cc3C2)nn2cnnc2c1C` [Compound 49, N-(2,3-difluorophenyl)-6-(7,8-dimethyl-[1,2,4]triazolo[4,3-b]pyridazin-6-yl)-7,8-dihydro-5H-1,6-naphthyridin-3-amine], under setting [6], the Emax at 30 µM came to 82%. In addition, the EC50 under setting [3] came out at 82.4 nM.
